Literature values, collected in US6392068B1, “Carborane containing cholesterol, a new type of molecule for targeted boron drug delivery” (The University of Georgia Research Foundation, Inc., priority 1999, dated 2002).

Test system: tumor cell
Conditions: in-vitro; background statement

Substance: Na2B12H11 SH [BSH]
- retention in the tumor cell: does not stay in the tumor cell but is easily washed out
